From US8846697B2, “Purine analogs” (The Regents of the University of California, priority 2006, dated 2014)
“Also recorded” adds a separate entry of the source.

Tested on: human PBMC
Test: Interferon α induction in human PBMC (Luminex, Beadlyte Human MultiCytokine kit)
Format: cell-based
Parameters: key to IFN-α (Interferon concentration): b: Below lower limit of detection
Settings: for interferon inducing activity (in words) / IFN-α (Interferon concentration) / EC50: human PBMC; for interferon inducing activity (in words): 1 μM; for IFN-α (Interferon concentration): all compounds tested at 1 μM, averages from four donors; for IFN-α (Interferon concentration) / EC50: 24 hr; for EC50: 10 μM to 10 nM, composited from three donors, read-out: EC50 (concentration at which 50% of the maximal IFN concentration was achieved)
Method: Reaction of 8-bromo compound 5 with NaN3 followed by Raney-Ni catalyzed hydrogenation furnished compound 6 in good yield. Acylation of compound 6 with ethylchloroformate led to the ethylcarbamate, compound 27, which was converted to the ureido compound 28 by reaction with methanolic ammonia. All compounds were tested for their ability to induce the production of interferon α in human PBMC compared to compound 4 as a positive control. Human blood samples were obtained from the San Diego Blood Bank. Peripheral blood mononuclear cells (PBMC) were isolated by density-gradient centrifugation over Ficoll-Hypaque (Amersham Pharmacia). Cells were resuspended in RPMI 1640 medium, supplemented with 10% fetal bovine serum (FBS), L-glutamine, and penicillin/streptomycin (RP10; Invitrogen, Carlsbad, Calif.), plated at 10^6 cells/well in 96-well plates, and stimulated with compounds at 1 μM final concentration for 24 hr. at 37° C., 5% CO2. The IFN-α level in the supernatants was measured by Luminex (Austin, Tex.) using the Beadlyte Human MultiCytokine kit (Upstate, Charlottesville, Va.), according to the manufacturer's instructions. Results presented in Table 2 are averages of data composited from four different donors. […] Detailed analytical data for these compounds is as follows:
For this dose response study, cells were treated with the listed compounds at concentrations ranging from 10 μM to 10 nM for 24 hr. The data shown in Table 3 are composited from three different donors, and a non-linear regression curve fit analysis was performed using GraphPad Prism software version 4.0b (San Diego, Calif.) to determine the EC50.

| SMILES | interferon inducing activity (in words) | IFN-α (Interferon concentration) | EC50 [µM] | EC50 (in words) (interferon induction in human PBMC) | interferon inducing activity (in words) (listed as hydroxypropyl) |
| --- | --- | --- | --- | --- | --- |
| CCN(CC)c1nc2c(N)nc(OCCOC)nc2n1Cc1ccccc1 [Compound 11] | activity is lost | b |  |  |  |
| CCCCNc1nc2c(N)nc(OCCOC)nc2n1Cc1ccccc1 [Compound 10] |  | 0.73 pg/mL |  |  |  |
| COCCOc1nc(N)c2nc(NCCN3CCOCC3)n(Cc3ccccc3)c2n1 [Compound 19] | most active; also recorded: highest activity | 110.48 pg/mL | 0.79 | submicromolar range |  |
| COCCOc1nc(N)c2nc(NCCc3ccccc3)n(Cc3ccccc3)c2n1 [Compound 18] | not active | 1.33 pg/mL |  |  |  |
| COCCOc1nc(N)c2nc(NCC3CCCCC3)n(Cc3ccccc3)c2n1 [Compound 24] |  | b |  |  |  |
| CNc1nc2c(N)nc(OCCOC)nc2n1Cc1ccccc1 [Compound 7] |  | b |  |  |  |
| COCCOc1nc(N)c2nc(NCCCO)n(Cc3ccccc3)c2n1 [Compound 14] | most active | 113.18 pg/mL | 3.2 |  | about equally active |
| COCCOc1nc(N)c2nc(NCCN(CCO)CCO)n(Cc3ccccc3)c2n1 [Compound 22] |  | b |  |  |  |
| COCCOc1nc(N)c2nc(NN)n(Cc3ccccc3)c2n1 [Compound 29] |  | 0.21 pg/mL |  |  |  |
| COCCOc1nc(N)c2nc(NCC3CCCO3)n(Cc3ccccc3)c2n1 (stereo not drawn) [Compound 16] |  | b |  |  |  |
| COCCOc1nc(N)c2nc(NC(N)=O)n(Cc3ccccc3)c2n1 [Compound 28] |  | b |  |  |  |
| COCCOc1nc(N)c2nc(NCc3ccccc3)n(Cc3ccccc3)c2n1 [Compound 17] |  | b |  |  |  |
| COCCOc1nc(N)c2nc(NCCCCO)n(Cc3ccccc3)c2n1 [Compound 15] | devoid of activity | b |  |  |  |
| COCCOc1nc(N)c2nc(NCCN3CCCCC3)n(Cc3ccccc3)c2n1 [Compound 20] | not active | b |  |  |  |
| COCCNc1nc2c(N)nc(OCCOC)nc2n1Cc1ccccc1 [Compound 21] |  | b |  |  |  |
| COCCOc1nc(N)c2nc(NCCO)n(Cc3ccccc3)c2n1 [Compound 12] | most active; also recorded: activity was enhanced somewhat | 99.21 pg/mL | 5.33 |  |  |
| COCCOc1nc(N)c2nc(NCCc3c[nH]c4ccccc34)n(Cc3ccccc3)c2n1 [Compound 26] | not active | b |  |  |  |
| CCNc1nc2c(N)nc(OCCOC)nc2n1Cc1ccccc1 [Compound 8] | most active; also recorded: superior to the others | 80.30 pg/mL | 4.42 |  |  |
| COCCOc1nc(N)c2nc(N(CCO)CCO)n(Cc3ccccc3)c2n1 [Compound 13] | abrogated activity | 0.82 pg/mL |  |  |  |
| COCCOc1nc(N)c2[nH]c(=O)n(Cc3ccccc3)c2n1 [Compound 4, 9-benzyl-2-methoxyethoxy-8-oxoadenine, reference compound] |  | 418.00 pg/mL | 0.14 |  |  |
| COCCOc1nc(N)c2nc(NCCCN(CCO)CCO)n(Cc3ccccc3)c2n1 [Compound 23] |  | b |  |  |  |
| CCOC(=O)Nc1nc2c(N)nc(OCCOC)nc2n1Cc1ccccc1 [Compound 27] |  | 1.03 pg/mL |  |  |  |
| CCCNc1nc2c(N)nc(OCCOC)nc2n1Cc1ccccc1 [Compound 9] |  | 8.80 pg/mL |  |  |  |
| COCCOc1nc(N)c2nc(N)n(Cc3ccccc3)c2n1 [Compound 6] | completely removed all interferon inducing activity | 35.25 pg/mL | > 10 |  |  |
| COCCOc1nc(N)c2nc(N3CCOCC3)n(Cc3ccccc3)c2n1 [Compound 25] | not active | 0.41 pg/mL |  |  |  |
